Measurements reported in ChEMBL document CHEMBL5370560, “Isolation of Anti-SARS-CoV-2 Natural Products Extracted from Mentha canadensis and the Semi-synthesis of Antiviral Derivatives” (J Nat Prod, 2023).
The source made the active and inactive calls. The calls are words filed in the database; no cut-off is given here.

Columns and labels:
SARS-CoV-2 [1] = test: (§1) Antiviral activity against SARS-CoV-2 Delta infected in African green monkey Vero E6 cells assessed as inhibition of plaque formation at 50 uM incubated for 1 hr followed by virus-drug mixture washout and further addition of media without compound for 5 to 7 days by crystal violet staining based assay; format: functional, organism-based; conditions: Severe acute respiratory syndrome coronavirus 2
SARS-CoV-2 [2] = test: as §1, with “assay relative to control” for “assay”; format: functional, Severe acute respiratory syndrome coronavirus 2; conditions: for inhibition at 50 µM: Severe acute respiratory syndrome coronavirus 2, Delta, Vero C1008
SARS-CoV-2 [3] = test: as §1, with “Omicron BA.1” for “Delta”, “assay relative to control” for “assay”; format: functional, Severe acute respiratory syndrome coronavirus 2; conditions: for inhibition at 50 µM: Severe acute respiratory syndrome coronavirus 2, Omicron BA.1, Vero C1008
[4] = Cytotoxicity against African green monkey Vero E6 cells assessed as reduction in cell viability incubated for 48 hrs by MTT assay; format: toxicity, cell-based, Vero C1008; conditions: chlorocebus sabaeus
SARS-CoV-2 [5] = test: as §1, with “5” for “50”, “assay relative to control” for “assay”; format: functional, Severe acute respiratory syndrome coronavirus 2; conditions: for inhibition at 5 µM: Severe acute respiratory syndrome coronavirus 2, Delta, Vero C1008
SARS-CoV-2 [6] = test: as §1, with “Omicron BA.1” for “Delta”, “5” for “50”, “assay relative to control” for “assay”; format: functional, Severe acute respiratory syndrome coronavirus 2; conditions: for inhibition at 5 µM: Severe acute respiratory syndrome coronavirus 2, Omicron BA.1, Vero C1008
SARS-CoV-2 [7] = test: as §1, with “0.5” for “50”; format: functional, organism-based; conditions: Severe acute respiratory syndrome coronavirus 2
SARS-CoV-2 [8] = test: as §1, with “Omicron BA.1” for “Delta”, “0.5” for “50”; format: functional, organism-based; conditions: Severe acute respiratory syndrome coronavirus 2
SARS-CoV-2 [9] = test: as §1, with “5” for “50”; format: functional, organism-based; conditions: Severe acute respiratory syndrome coronavirus 2
SARS-CoV-2 [10] = test: as §1, with “Omicron BA.1” for “Delta”, “0.5” for “50”, “assay relative to control” for “assay”; format: functional, Severe acute respiratory syndrome coronavirus 2; conditions: for inhibition at 0.5 µM: Severe acute respiratory syndrome coronavirus 2, Omicron BA.1, Vero C1008
SARS-CoV-2 [11] = test: as §1, with “Omicron BA.1” for “Delta”, “100” for “50”, “assay relative to control” for “assay”; format: functional; conditions: Severe acute respiratory syndrome coronavirus 2, Omicron BA.1, Vero C1008
SARS-CoV-2 [12] = test: as §1, with “100” for “50”, “assay relative to control” for “assay”; format: functional; conditions: Severe acute respiratory syndrome coronavirus 2, Delta, Vero C1008
SARS-CoV-2 [13] = test: Antiviral activity against SARS-CoV-2 infected in African green monkey Vero E6 cells preincubated for 1 hr followed by addition of fresh medium containing compounds and measured after 24 hrs by qRT-PCR analysis; format: functional, organism-based; conditions: Severe acute respiratory syndrome coronavirus 2, Vero C1008
SARS-CoV-2 [14] = test: as §1, with “0.5” for “50”, “assay relative to control” for “assay”; format: functional, Severe acute respiratory syndrome coronavirus 2
SARS-CoV-2 [15] = test: as §1, with “Omicron BA.1” for “Delta”; format: functional, organism-based; conditions: Severe acute respiratory syndrome coronavirus 2
SARS-CoV-2 [16] = test: Antiviral activity against SARS-CoV-2 Delta infected in African green monkey Vero E6 cells assessed as inhibition of plaque formation incubated for 1 hr followed by virus-drug mixture washout and further addition of media without compound for 5 to 7 days by crystal violet staining based assay; format: functional, organism-based; conditions: Severe acute respiratory syndrome coronavirus 2, Delta, Vero C1008
SARS-CoV-2 [17] = test: Antiviral activity against SARS-CoV-2 Omicron BA.1 infected in African green monkey Vero E6 cells assessed as inhibition of plaque formation incubated for 1 hr followed by virus-drug mixture washout and further addition of media without compound for 5 to 7 days by crystal violet staining based assay; format: functional, organism-based; conditions: Severe acute respiratory syndrome coronavirus 2, Omicron BA.1, Vero C1008
[18] = biological target: Spike glycoprotein (Severe acute respiratory syndrome coronavirus 2) (UniProt P0DTC2); test: Binding affinity to NTA chip immobilised recombinant SARS-CoV-2 Delta spike protein RBD at 50 uM measured for 500 secs by SPR analysis; conditions: time 500.0 sec
SARS-CoV-2 [19] = test: (§2) Synergistic antiviral activity against SARS-CoV-2 Delta infected in Vero E6 cells incubated for 1 hr in presence of ivermectin followed by virus-drug mixture washout and further addition of media without compound for 5 to 7 days by crystal violet staining based assay; format: functional, organism-based; conditions: Severe acute respiratory syndrome coronavirus 2
SARS-CoV-2 [20] = test: (§3) Synergistic antiviral activity against SARS-CoV-2 Omicron BA.1 infected in Vero E6 cells incubated for 1 hr in presence of ivermectin followed by virus-drug mixture washout and further addition of media without compound for 5 to 7 days by crystal violet staining based assay; format: functional, organism-based; conditions: Severe acute respiratory syndrome coronavirus 2
SARS-CoV-2 [21] = test: as §2, with “cells assessed as reduction in plaque formation by measuring combination index at ED50” for “cells”, “Chou-Talalay method” for “crystal violet staining based assay”; format: functional, Severe acute respiratory syndrome coronavirus 2
SARS-CoV-2 [22] = test: as §3, with “cells assessed as reduction in plaque formation by measuring combination index at ED50” for “cells”, “Chou-Talalay method” for “crystal violet staining based assay”; format: functional, Severe acute respiratory syndrome coronavirus 2

Compound	inhibition at 50 µM (SARS-CoV-2 [2]) [%]	inhibition at 50 µM (SARS-CoV-2 [3]) [%]	CC50 at 48 h [4] [µM]	inhibition at 5 µM (SARS-CoV-2 [6]) [%]	inhibition (SARS-CoV-2 [7])	inhibition (SARS-CoV-2 [9])	further results
COc1c(O)c(OC)c2oc(-c3ccc(O)cc3)cc(=O)c2c1O							inhibition (SARS-CoV-2 [1]): Active
O=C(/C=C/c1ccc(O)c(O)c1)O[C@H](Cc1ccc(O)c(O)c1)C(=O)NCc1ccccc1	57	58	> 100	17	inactive		inhibition at 5 µM (SARS-CoV-2 [5]): 18%; inhibition (SARS-CoV-2 [8]): inactive
C#CCNC(=O)[C@@H](Cc1ccc(O)c(O)c1)OC(=O)/C=C/c1ccc(O)c(O)c1	30	26	> 100	17	inactive	inactive	inhibition at 0.5 µM (SARS-CoV-2 [10]): 17%
O=C(O)[C@H](O)Cc1ccc(O)c(O)c1	19	40					inhibition at 100 µM (SARS-CoV-2 [11]): 40%; inhibition at 100 µM (SARS-CoV-2 [12]): 19%; EC50 (SARS-CoV-2 [13]): 0.97 µM
O=C(O)/C=C/c1ccc(O)c(O)c1 [CAFFEIC ACID]	23	36					inhibition at 100 µM (SARS-CoV-2 [11]): 42%; inhibition at 100 µM (SARS-CoV-2 [12]): 29%
COCCNC(=O)[C@@H](Cc1ccc(O)c(O)c1)OC(=O)/C=C/c1ccc(O)c(O)c1	23	29	> 100	13	inactive	inactive	inhibition (SARS-CoV-2 [8]): inactive
CCCCCCCCCCCCNC(=O)[C@@H](Cc1ccc(O)c(O)c1)OC(=O)/C=C/c1ccc(O)c(O)c1			17.5				inhibition (INH) (SARS-CoV-2 [5]): 78%; inhibition (INH) (SARS-CoV-2 [14]): 15%; inhibition (INH) (SARS-CoV-2 [6]): 54%; inhibition (SARS-CoV-2 [1]): inactive; inhibition (SARS-CoV-2 [15]): inactive; inhibition (INH) (SARS-CoV-2 [10]): 17%; IC50 (SARS-CoV-2 [16]): 0.93 µM; IC50 (SARS-CoV-2 [17]): 0.77 µM; Activity [18]: inactive
COc1cc(C(=O)O)cc(OC)c1O							inhibition (SARS-CoV-2 [1]): Active; Activity (SARS-CoV-2 [19]): inactive; Activity (SARS-CoV-2 [20]): inactive
CCc1cccc(NC(=O)[C@@H](Cc2ccc(O)c(O)c2)OC(=O)/C=C/c2ccc(O)c(O)c2)c1			50.7				inhibition (INH) (SARS-CoV-2 [2]): 100%; inhibition (INH) (SARS-CoV-2 [3]): 100%; inhibition (INH) (SARS-CoV-2 [5]): 53%; inhibition (INH) (SARS-CoV-2 [14]): 14%; inhibition (INH) (SARS-CoV-2 [6]): 57%; inhibition (INH) (SARS-CoV-2 [10]): 24%; IC50 (SARS-CoV-2 [16]): 12.6 µM; IC50 (SARS-CoV-2 [17]): 2.7 µM; Activity [18]: inactive
O=C(/C=C/c1ccc(O)c(O)c1)O[C@H](Cc1ccc(O)c(O)c1)C(=O)N1CCOCC1	8	23	> 100	19	inactive	inactive	inhibition (SARS-CoV-2 [8]): inactive
O=C(/C=C/c1ccc(O)c(O)c1)O[C@H](Cc1ccc(O)c(O)c1)C(=O)NCCCCCCCl	75	66	> 100	29	inactive		inhibition at 5 µM (SARS-CoV-2 [5]): 18%; inhibition at 0.5 µM (SARS-CoV-2 [10]): 14%
CCCCCCNC(=O)[C@@H](Cc1ccc(O)c(O)c1)OC(=O)/C=C/c1ccc(O)c(O)c1	95	77	> 100	21	inactive		inhibition at 5 µM (SARS-CoV-2 [5]): 23%; inhibition at 0.5 µM (SARS-CoV-2 [10]): 21%
O=C(/C=C/c1ccc(O)c(O)c1)O[C@H](Cc1ccc(O)c(O)c1)C(=O)NCc1ccco1	20	66	> 100	29	inactive	inactive	inhibition (SARS-CoV-2 [8]): inactive
COC(=O)[C@@H](Cc1ccc(O)c(O)c1)OC(=O)/C=C/c1ccc(O)c(O)c1 [METHYL ROSMARINATE]			> 1000				inhibition (SARS-CoV-2 [1]): Active; IC50 (SARS-CoV-2 [16]): 88.9 µM; IC50 (SARS-CoV-2 [17]): 57 µM; Activity [18]: inactive; CI (SARS-CoV-2 [21]): 1.74; CI (SARS-CoV-2 [22]): 1.67
O=C(/C=C/c1ccc(O)c(O)c1)O[C@H](Cc1ccc(O)c(O)c1)C(=O)N1CCCCC1	33	67	> 100	38	inactive	inactive	inhibition at 0.5 µM (SARS-CoV-2 [10]): 24%
O=C(/C=C/c1ccc(O)c(O)c1)O[C@H](Cc1ccc(O)c(O)c1)C(=O)O [ROSMARINIC ACID]	7	33					inhibition at 100 µM (SARS-CoV-2 [11]): 40%; inhibition at 100 µM (SARS-CoV-2 [12]): 9%
